Measurements published in ChEMBL document CHEMBL4673346, “Discovery of a benzimidazole series as the first highly potent and selective ACSL1 inhibitors” (Bioorg Med Chem Lett, 2021).

How the values were obtained:
[1] = biological target: T1, Long-chain-fatty-acid--CoA ligase 1 (Mus musculus, UniProt P41216); assay: Inhibition of recombinant mouse ACSL1 assessed as reduction in […] prodution incubated for 90 mins in presence of Coenzyme A, ATP and MgCl2 by MALDI-TOF MS analysis
T1 sequence (P41216 whole entry): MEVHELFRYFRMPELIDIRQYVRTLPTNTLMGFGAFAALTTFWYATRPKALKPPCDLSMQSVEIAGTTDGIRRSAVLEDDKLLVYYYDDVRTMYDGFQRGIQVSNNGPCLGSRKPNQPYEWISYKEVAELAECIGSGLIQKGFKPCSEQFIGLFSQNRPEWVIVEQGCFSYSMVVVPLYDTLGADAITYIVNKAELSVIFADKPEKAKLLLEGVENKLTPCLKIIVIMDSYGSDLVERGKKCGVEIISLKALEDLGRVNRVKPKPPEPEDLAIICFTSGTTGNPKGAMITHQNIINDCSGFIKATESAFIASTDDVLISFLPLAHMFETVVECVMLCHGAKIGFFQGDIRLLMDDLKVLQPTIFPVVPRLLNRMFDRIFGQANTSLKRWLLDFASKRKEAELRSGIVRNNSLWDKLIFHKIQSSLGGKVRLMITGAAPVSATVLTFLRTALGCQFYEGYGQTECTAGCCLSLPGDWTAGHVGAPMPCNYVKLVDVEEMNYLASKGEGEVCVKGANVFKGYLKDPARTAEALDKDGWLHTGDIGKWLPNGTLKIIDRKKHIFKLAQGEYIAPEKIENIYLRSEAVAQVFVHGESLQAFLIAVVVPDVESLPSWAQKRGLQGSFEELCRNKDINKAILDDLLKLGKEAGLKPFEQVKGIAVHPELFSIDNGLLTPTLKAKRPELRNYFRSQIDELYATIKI

[2] = biological target: T2, Long-chain-fatty-acid--CoA ligase 1 (Homo sapiens, UniProt P33121); assay: Inhibition of recombinant human ACSL1 assessed as reduction in […] prodution incubated for 90 mins in presence of Coenzyme A, ATP and MgCl2 by MALDI-TOF MS analysis
T2 sequence (P33121 whole entry): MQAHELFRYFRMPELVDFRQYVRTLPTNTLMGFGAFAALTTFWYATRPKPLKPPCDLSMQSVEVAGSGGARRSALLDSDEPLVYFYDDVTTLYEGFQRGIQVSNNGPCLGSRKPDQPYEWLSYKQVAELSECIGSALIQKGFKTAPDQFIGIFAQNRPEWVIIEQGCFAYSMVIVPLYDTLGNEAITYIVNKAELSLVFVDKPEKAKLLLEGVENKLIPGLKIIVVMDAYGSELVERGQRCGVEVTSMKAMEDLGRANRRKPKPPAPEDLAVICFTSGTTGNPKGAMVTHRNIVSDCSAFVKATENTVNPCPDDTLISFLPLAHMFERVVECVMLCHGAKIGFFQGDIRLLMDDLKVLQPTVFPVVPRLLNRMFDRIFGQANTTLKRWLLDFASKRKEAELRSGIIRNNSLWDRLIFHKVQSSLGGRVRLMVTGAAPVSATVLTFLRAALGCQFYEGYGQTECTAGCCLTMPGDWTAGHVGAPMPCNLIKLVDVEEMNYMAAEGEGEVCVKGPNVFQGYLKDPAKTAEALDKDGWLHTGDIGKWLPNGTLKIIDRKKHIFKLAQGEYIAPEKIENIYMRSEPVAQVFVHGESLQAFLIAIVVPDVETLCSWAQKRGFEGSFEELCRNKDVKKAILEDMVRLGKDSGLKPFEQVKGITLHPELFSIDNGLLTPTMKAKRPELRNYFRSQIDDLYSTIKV

[3] = biological target: T2, Long-chain-fatty-acid--CoA ligase 1; assay: Inhibition of ACSL1 (unknown origin) assessed as reduction in […] prodution incubated for 90 mins in presence of Coenzyme A, ATP and MgCl2 by MALDI-TOF MS analysis
[4] = biological target: Long-chain-fatty-acid--CoA ligase 4 (Homo sapiens, UniProt O60488); assay: Inhibition of recombinant human ACSL4 assessed as reduction in […] prodution incubated for 120 mins in presence of Coenzyme A, ATP and MgCl2 by MALDI-TOF MS analysis
Chain of Long-chain-fatty-acid--CoA ligase 4 (O60488 whole entry): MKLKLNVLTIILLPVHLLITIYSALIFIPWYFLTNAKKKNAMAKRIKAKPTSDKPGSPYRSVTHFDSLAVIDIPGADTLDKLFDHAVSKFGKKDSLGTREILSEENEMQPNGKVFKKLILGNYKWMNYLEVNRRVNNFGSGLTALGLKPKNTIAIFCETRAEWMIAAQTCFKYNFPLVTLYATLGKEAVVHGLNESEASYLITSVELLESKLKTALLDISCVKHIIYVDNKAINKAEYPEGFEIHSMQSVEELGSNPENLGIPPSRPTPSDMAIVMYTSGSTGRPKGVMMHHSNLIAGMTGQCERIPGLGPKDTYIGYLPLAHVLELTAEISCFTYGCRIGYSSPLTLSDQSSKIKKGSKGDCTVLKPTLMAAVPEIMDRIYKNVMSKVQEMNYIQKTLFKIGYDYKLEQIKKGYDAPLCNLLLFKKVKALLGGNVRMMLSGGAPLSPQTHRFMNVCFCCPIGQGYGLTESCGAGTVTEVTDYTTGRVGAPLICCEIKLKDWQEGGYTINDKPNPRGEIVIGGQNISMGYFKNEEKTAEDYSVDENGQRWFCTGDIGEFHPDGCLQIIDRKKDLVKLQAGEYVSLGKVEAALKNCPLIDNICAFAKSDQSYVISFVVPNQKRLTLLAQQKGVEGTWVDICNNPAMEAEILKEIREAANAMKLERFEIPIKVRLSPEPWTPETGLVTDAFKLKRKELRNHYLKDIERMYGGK

[5] = biological target: Fatty acid CoA ligase Acsl3 (Homo sapiens, UniProt O95573); assay: Inhibition of recombinant human ACSL3 assessed as reduction in […] prodution incubated for 90 mins in presence of Coenzyme A, ATP and MgCl2 by MALDI-TOF MS analysis
Chain of Fatty acid CoA ligase Acsl3 (O95573 whole entry): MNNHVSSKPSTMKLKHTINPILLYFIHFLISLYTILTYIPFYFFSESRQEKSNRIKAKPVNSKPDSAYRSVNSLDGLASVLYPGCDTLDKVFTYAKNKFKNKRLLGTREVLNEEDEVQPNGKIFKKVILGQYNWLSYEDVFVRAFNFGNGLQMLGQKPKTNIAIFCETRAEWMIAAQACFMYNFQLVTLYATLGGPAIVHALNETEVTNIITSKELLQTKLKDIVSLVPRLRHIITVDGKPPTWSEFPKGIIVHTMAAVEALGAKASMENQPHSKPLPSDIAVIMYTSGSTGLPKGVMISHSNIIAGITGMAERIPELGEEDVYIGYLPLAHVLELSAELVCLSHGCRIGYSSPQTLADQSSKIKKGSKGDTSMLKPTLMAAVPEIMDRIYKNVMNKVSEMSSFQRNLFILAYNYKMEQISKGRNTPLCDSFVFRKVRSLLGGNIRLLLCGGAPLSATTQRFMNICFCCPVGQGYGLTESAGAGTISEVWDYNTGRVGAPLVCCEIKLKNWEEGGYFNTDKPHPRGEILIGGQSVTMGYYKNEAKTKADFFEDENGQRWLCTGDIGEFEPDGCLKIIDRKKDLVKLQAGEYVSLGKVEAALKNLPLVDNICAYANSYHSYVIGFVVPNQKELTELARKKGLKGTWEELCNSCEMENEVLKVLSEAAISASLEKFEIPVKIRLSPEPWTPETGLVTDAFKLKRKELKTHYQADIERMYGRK

[6] = biological target: T3, Long-chain-fatty-acid--CoA ligase 6 (Homo sapiens, UniProt Q9UKU0); assay: Inhibition of recombinant human ACSL6 assessed as reduction in […] prodution incubated for 60 mins in presence of Coenzyme A, ATP and MgCl2 by MALDI-TOF MS analysis
T3 sequence (Q9UKU0 whole entry): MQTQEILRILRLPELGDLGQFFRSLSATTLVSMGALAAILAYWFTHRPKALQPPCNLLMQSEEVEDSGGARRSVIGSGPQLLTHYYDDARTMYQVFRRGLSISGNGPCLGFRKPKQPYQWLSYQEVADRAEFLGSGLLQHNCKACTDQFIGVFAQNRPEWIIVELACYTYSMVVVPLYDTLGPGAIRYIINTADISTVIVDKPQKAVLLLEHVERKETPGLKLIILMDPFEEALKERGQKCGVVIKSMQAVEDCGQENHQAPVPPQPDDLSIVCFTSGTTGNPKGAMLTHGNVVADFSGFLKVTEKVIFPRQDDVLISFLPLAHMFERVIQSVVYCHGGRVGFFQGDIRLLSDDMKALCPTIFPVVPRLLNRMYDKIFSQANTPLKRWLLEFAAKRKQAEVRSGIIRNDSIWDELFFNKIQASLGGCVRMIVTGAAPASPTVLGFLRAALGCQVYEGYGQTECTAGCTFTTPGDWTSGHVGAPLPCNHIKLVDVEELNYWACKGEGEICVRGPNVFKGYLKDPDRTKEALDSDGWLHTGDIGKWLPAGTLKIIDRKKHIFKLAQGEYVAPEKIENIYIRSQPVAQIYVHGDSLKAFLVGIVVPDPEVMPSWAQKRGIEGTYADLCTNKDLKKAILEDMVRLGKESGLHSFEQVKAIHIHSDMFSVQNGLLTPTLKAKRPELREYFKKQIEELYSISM

[7] = biological target: T4, Long-chain-fatty-acid--CoA ligase 5 (Homo sapiens, UniProt Q9ULC5); assay: Inhibition of recombinant human ACSL5 assessed as reduction in […] prodution incubated for 90 mins in presence of Coenzyme A, ATP and MgCl2 by MALDI-TOF MS analysis
T4 sequence (Q9ULC5 whole entry): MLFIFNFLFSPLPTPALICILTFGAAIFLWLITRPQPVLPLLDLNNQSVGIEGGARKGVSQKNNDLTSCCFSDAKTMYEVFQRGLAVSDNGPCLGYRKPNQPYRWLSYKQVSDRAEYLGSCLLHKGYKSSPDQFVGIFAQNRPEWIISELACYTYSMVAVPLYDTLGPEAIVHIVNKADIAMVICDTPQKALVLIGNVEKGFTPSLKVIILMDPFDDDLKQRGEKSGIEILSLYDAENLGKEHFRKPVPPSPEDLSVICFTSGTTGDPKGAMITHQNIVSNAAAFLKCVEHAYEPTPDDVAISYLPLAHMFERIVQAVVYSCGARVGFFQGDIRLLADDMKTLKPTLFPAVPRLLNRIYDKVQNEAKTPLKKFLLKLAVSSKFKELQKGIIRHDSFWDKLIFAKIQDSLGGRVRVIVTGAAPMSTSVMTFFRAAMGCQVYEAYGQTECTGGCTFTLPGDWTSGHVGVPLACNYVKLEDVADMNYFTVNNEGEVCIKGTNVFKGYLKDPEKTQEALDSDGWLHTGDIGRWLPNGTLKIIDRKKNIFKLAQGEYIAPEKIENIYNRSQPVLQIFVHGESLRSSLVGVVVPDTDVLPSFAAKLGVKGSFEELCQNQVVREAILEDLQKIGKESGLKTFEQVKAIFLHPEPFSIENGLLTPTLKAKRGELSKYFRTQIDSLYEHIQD

Structure (SMILES) | IC50 [1] [µM] | IC50 [2] [µM] | other results
Cn1c(Cc2ccc3c(c2)OCC3)nc2cc(O[C@H]3CC[C@@H](C(=O)O)CC3)ccc21 | 0.036 | 0.013 | 
O=C(O)CCCCOc1ccc2oc3ccccc3c(=O)c2c1 |  |  | IC50 [3]: 1.7 µM; IC50 [4]: > 200 µM; IC50 [5]: > 200 µM; IC50 [6]: 93 µM; IC50 [7]: > 200 µM
O=C(O)C[C@H]1CC[C@H](Oc2ccc3oc4ccccc4c(=O)c3c2)CC1 |  |  | IC50 [3]: > 200 µM
Cc1cccc(Oc2nc3cc(O[C@H]4CC[C@@H](C(=O)O)CC4)ccc3n2C)c1 | 21 | 78 | 
Cc1cccc(Cn2nc3cc(O[C@H]4CC[C@@H](C(=O)O)CC4)ccc3c2C)c1 | 0.053 | 0.045 | 
O=C(O)CCCCCCOc1ccc2oc3ccccc3c(=O)c2c1 |  |  | IC50 [3]: 0.31 µM; IC50 [4]: > 200 µM; IC50 [5]: 114 µM; IC50 [6]: 6.2 µM; IC50 [7]: > 200 µM
Cc1cccc(C(=O)c2nc3cc(O[C@H]4CC[C@@H](C(=O)O)CC4)ccc3n2C)c1 |  | > 200 | 
O=c1c2ccccc2oc2ccc(O[C@H]3CC[C@H](C(=O)O)CC3)cc12 | 1.4 | 0.24 | IC50 [3]: > 200 µM
Cn1c(Cc2cccc(C(F)(F)F)c2)nc2cc(O[C@H]3CC[C@@H](C(=O)O)CC3)ccc21 | 0.086 | 0.19 | 
O=c1c2ccccc2oc2ccc(O[C@H]3CC[C@@H](C(=O)O)CC3)cc12 |  |  | IC50 [3]: 0.24 µM; IC50 [4]: > 200 µM; IC50 [5]: 69 µM; IC50 [6]: 70 µM; IC50 [7]: > 200 µM
O=C(O)c1ccc(Oc2ccc3oc4ccccc4c(=O)c3c2)cc1 |  |  | IC50 [3]: > 200 µM
O=C(O)C[C@H]1CC[C@@H](Oc2ccc3oc4ccccc4c(=O)c3c2)CC1 |  |  | IC50 [3]: 18 µM
Cc1cccc(Cc2nc3cc(O[C@H]4CC[C@@](F)(c5nnn[nH]5)CC4)ccc3n2C)c1 | 0.013 | 0.013 | 
Cn1c(Cc2cccnc2)nc2cc(O[C@H]3CC[C@@H](C(=O)O)CC3)ccc21 | > 200 | 141 | 
Cc1cccc(Cc2c(C#N)c3cc(O[C@H]4CC[C@@H](C(=O)O)CC4)ccc3n2C)c1 | 0.6 | 1.9 | 
O=C(O)[C@H]1CC[C@@H](Oc2ccc3oc(-c4ccccc4)nc3c2)CC1 | 59 | 4.4 | 
O=c1c2ccccc2oc2ccc(OC[C@H]3CC[C@H](C(=O)O)CC3)cc12 |  |  | IC50 [3]: > 200 µM
Cc1cccc(Cc2c(C(N)=O)c3cc(O[C@H]4CC[C@@H](C(=O)O)CC4)ccc3n2C)c1 | 0.44 | 0.6 | 
Cc1ccccc1Cc1nc2cc(O[C@H]3CC[C@@H](C(=O)O)CC3)ccc2n1C | 5.4 | 7.8 | 
O=C(O)[C@H]1CC[C@@H](Oc2ccc3c(c2)Cc2ccccc2O3)CC1 | 4 | 4.6 | 
Cc1cccc(Cc2nc3cc(O[C@H]4CC[C@@H](c5nnn[nH]5)CC4)ccc3n2C)c1 | 0.025 | 0.034 | 
Cc1cccc(Cc2nc3cc(O[C@H]4CC[C@@H](c5noc(=O)[nH]5)CC4)ccc3n2C)c1 | 0.1 | 0.047 | 
O=c1c2ccccc2oc2ccc(OC[C@H]3CC[C@@H](C(=O)O)CC3)cc12 |  |  | IC50 [3]: > 200 µM
Cn1c(Cc2ccc3c(c2)OCC3)nc2cc(O[C@H]3CC[C@@](F)(c4nnn[nH]4)CC3)ccc21 | 0.015 | 0.003 | 
Cc1ccc(Cc2nc3cc(O[C@H]4CC[C@@H](C(=O)O)CC4)ccc3n2C)cc1 | 0.08 | 0.15 | 

Now from value to compound, other results behind:

IC50 [1] [µM] | IC50 [2] [µM] | Structure (SMILES) | other results
0.1 | 0.047 | Cc1cccc(Cc2nc3cc(O[C@H]4CC[C@@H](C(=O)O)CC4)c(Cl)cc3n2C)c1 | 
> 200 | > 200 | Cc1cccc(Cc2nc3ccc(O[C@H]4CC[C@@H](C(=O)O)CC4)cc3n2C)c1 | 
8.1 | 17 | Cc1cccc(COc2nc3cc(O[C@H]4CC[C@@H](C(=O)O)CC4)ccc3n2C)c1 | 
0.17 | 0.028 | Cc1cccc(Cc2nc3cc(O[C@H]4CC[C@@H](C(=O)O)CC4)cc(Cl)c3n2C)c1 | 
22 | 51 | Cn1c(Cc2cccc(C#N)c2)nc2cc(O[C@H]3CC[C@@H](C(=O)O)CC3)ccc21 | 
56 | 61 | Cc1cccc(Cc2nc3c(Cl)c(O[C@H]4CC[C@@H](C(=O)O)CC4)ccc3n2C)c1 | 
0.079 | 0.044 | Cc1cccc(Cc2nc3nc(O[C@H]4CC[C@@H](C(=O)O)CC4)ccc3n2C)c1 | 
0.4 | 0.4 | Cc1cccc(Cc2cc3cc(O[C@H]4CC[C@@H](C(=O)O)CC4)ccc3n2C)c1 | 
46 | 41 | Cc1cccc(Cc2nc3cc(O[C@H]4CC[C@@H](C(=O)O)CC4)ncc3n2C)c1 | 
0.19 | 0.95 | Cc1cccc(Cc2nc3cc(O[C@H]4CC[C@@H](C(N)=O)CC4)ccc3n2C)c1 | 
> 200 | > 200 | Cc1cccc(Cc2nc3cc(O[C@H]4CC[C@@H](C(=O)O)CC4)ccc3n2C(C)C)c1 | 
0.14 | 0.039 | Cc1cccc(Cc2nc3cc(O[C@H]4CC[C@@H](C(=O)O)CC4)ccc3o2)c1 | 
